Assays:
sBC clusters = test: Selective delivery of PTM toxin to sBC clusters, live/dead cell quantification; assay type: cell-based, human; conditions: 24 hours, vs untreated control
Experimental: Blank or pentamidine (PTM) (B-cell toxin) loaded NCs were left uncoated or coated with either an ENTPD3 antibody or BSA for up to about 168 hours. Untreated and 1 μM free PTM were utilized as additional controls. […] Although benzalkonium chloride (BKC) can be used for biological applications, it can be toxic to cells at high concentrations.
In further exemplary methods, the number of GFP positive and GFP negative dead cells were quantified as GFP correlates to insulin positive cells. For the dead sBC clusters, 76% at 24 hours (FIG. 20G) and 69% at 72 hours were GFP positive (FIG. 20H).

[1] = NC stability after freeze drying with cryoprotectant; assay type: physicochemical
Experimental: In another exemplary method, NC stability after freeze drying was tested as a potential method for preserving NCs for long term storage and use including analyzing NC integrity and cargo retention for extended periods of time. In this example, mannitol (a sugar alcohol example, e.g., sorbitol and the like) was chosen as the cryoprotectant. W/O NCs were utilized for this experiment. Mannitol concentrations of 2.5% w/v, 5.0 w/v, and 10.0 w/v were tested to determine the optimal concentration (FIG. 13A). […] SEM images were taken before (FIG. 13B) and after (FIG. 13C) freeze drying to confirm DLS measurements. It was observed that the NC yield decreased after reconstitution which may be attributed to the mannitol crystallizing and imposing mechanical forces either breaking the NCs or forming aggregates. It is noted that mannitol can be removed, if needed or desired, from the NC formulations by centrifugation and washing in either water or PBS.

ability to replace mannitol as cryoprotectant in freeze drying of NCs [1] | Structure (SMILES) | percentage of dead cells (sBC clusters)
 | N=C(N)c1ccc(OCCCCCOc2ccc(C(=N)N)cc2)cc1 [free PTM, pentamidine] | killed the majority of sBCs
failed to stabilize the NCs | OC[C@H]1O[C@H](O[C@]2(CCl)O[C@H](CCl)[C@@H](O)[C@@H]2O)[C@H](O)[C@@H](O)[C@H]1Cl [sucralose] | 
failed to stabilize the NCs | OC[C@H]1O[C@@](CO)(O[C@H]2O[C@H](CO)[C@@H](O)[C@H](O)[C@H]2O)[C@@H](O)[C@@H]1O [sucrose] | 
